≈ marks a conversion by molar mass, not a printed value.
Legend:
A549 = experiment: Cytotoxicity against human A549 cells; assay type: functional, cell-based
HT-29 = experiment: Cytotoxicity against human HT29 cells; assay type: functional, cell-based

Row | Structure (SMILES) | IC50 (A549) [ng/mL] | IC50 (HT-29) [ng/mL]
1 | CC(C)[C@]12O[C@@H]1[C@@H]1O[C@]13[C@]1(O[C@H]1C[C@H]1C4=C(CC[C@@]13C)C(=O)OC4)[C@@H]2F | 0.42 (≈ 0.00116 µM) | 0.06 (≈ 0.000166 µM)
2 | CC(C)[C@]12O[C@H]1[C@@H]1O[C@@]13[C@@]1(C)CCC4=C(COC4=O)[C@@H]1C[C@@H]1O[C@@]13C2=O [TRIPTONIDE] | 3.5 (≈ 0.00977 µM) | < 0.46
3 | CC(C)[C@]12O[C@H]1[C@@H]1O[C@]13[C@]1(O[C@H]1C[C@H]1C4=C(CC[C@@]13C)C(=O)OC4)[C@H]2O [EPITRIPTOIIDE] | 59 (≈ 0.164 µM) | 9.1 (≈ 0.0252 µM)
4 | CC(C)[C@]1(F)O[C@H]2[C@@H]3O[C@]34[C@]3(O[C@H]3C[C@H]3C5=C(CC[C@@]34C)C(=O)OC5)[C@H]21 | 997 (≈ 2.75 µM) | 72 (≈ 0.199 µM)
5 | CC(C)C(=O)[C@H]1[C@@H](O)[C@@H]2O[C@]23[C@]12O[C@H]2C[C@H]1C2=C(CC[C@@]13C)C(=O)OC2 | > 1 | 86 (≈ 0.239 µM)
6 | CC(C)C1=C[C@]23O[C@H]2C[C@H]2C4=C(CC[C@]2(C)[C@@]32O[C@H]2[C@H]1F)C(=O)OC4 | 2200 (≈ 6.35 µM) | 210 (≈ 0.606 µM)
7 | CC(C)[C@]12O[C@@H]1[C@@H]1O[C@]13[C@]1(O[C@H]1C[C@H]1C4=C(CC[C@@]13C)C(=O)OC4)[C@H]2F | 3 (≈ 0.00828 µM) | 0.24 (≈ 0.000662 µM)
8 | CC(C)C1=C[C@]23O[C@H]2C[C@H]2C4=C(CC[C@]2(C)[C@@]32O[C@H]2[C@@H]1F)C(=O)OC4 | 1500 (≈ 4.33 µM) | 150 (≈ 0.433 µM)
9 | CC(C)C1=C[C@]23O[C@H]2C[C@H]2C4=C(CC[C@]2(C)[C@@]32O[C@H]2[C@@H]1O)C(=O)OC4 | 81 (≈ 0.235 µM) | 17 (≈ 0.0494 µM)
10 | CC(C)[C@]12O[C@H]1[C@@H]1O[C@]13[C@]1(O[C@H]1C[C@H]1C4=C(CC[C@@]13C)C(=O)OC4)[C@@H]2O [TRIPTOLIDE] | 1.3 (≈ 0.00361 µM) | 0.1 (≈ 0.000277 µM)

— ChEMBL document CHEMBL1144681, “Fluorination of triptolide and its analogues and their cytotoxicity” (Bioorg Med Chem Lett, 2008)
